Reference: US20190255023A1, “COMBINATION THERAPY COMPRISING A THIAZOLE AND A CORTICOSTEROID TO TREAT SKIN CONDITIONS” (priority 2016, published 2019)

Test system: immortalized keratinocyte cell line HaCaT
Assay: Resazurin assay, HaCaT cell viability / proliferation
Type: cell-based, human
Settings: for suboptimal dose of reduced viability: single agent dose response, HaCaT, 24 hours (FIG. 1)
Experimental: The spontaneously immortalized, nontumorigenic skin keratinocyte cell line HaCaT was maintained in DMEM supplemented with 5% (v/v) FBS, 0.3 mg/ml glutamine and 0.1 mg/ml gentamicin at 37° C. with 5% CO2 in a humidified atmosphere. Subculture using trypsin-EDTA was performed every 3-4 days with split ratio of 1:3-1:4 to ensure actively proliferating cells.
Cells were seeded in 96 well plates in fully supplemented medium at a density of 3000 cells per well. […] Next day, the cells were treated with cPLA2α inhibitor Compound B, Compound A, vitamin D analogue Calcipotriol and corticosteroid hormone receptor agonist Betamethasone dipropionate for 24 hours. Resazurin was added next day according to the manufacturer's instruction (RnD Systems, UK) and left to incubate for […] in incubator at 37° C. with 5% CO2 in a humidified atmosphere before fluorescence was read at 544 nm excitation and 590 nm emission wavelength. The cells were observed under the microscope to evaluate possible morphology changes and signs of stress before addition of resazurin. The experiments were performed in series of 8 wells per treatment and repeated 3 times.

| SMILES | concentration up to which Hacat keratinocytes show resistance (single agent dose response (FIG. 1c), little effect seen attributed to solvent DMSO) | suboptimal dose of reduced viability [µM] |
| --- | --- | --- |
| C[C@H]1C[C@H]2[C@@H]3CCC4=CC(=O)C=C[C@]4(C)[C@@]3(F)[C@@H](O)C[C@]2(C)[C@@]1(O)C(=O)CO [Betamethasone] | up to 200 μM | 50 |
| CCCCCCCOc1ccc(OCC(=O)c2nc(C(=O)OC)cs2)cc1 [Compound A1] | – | 10 |
